Data on 1 molecule can be found in patent US6589762B1, “Calcafluor screen for chitin biosynthesis inhibitors” (priority 1993, dated 2003).

In test [1] the test system is Botrytis cinerea. Put plainly: Calcofluor rescue with filamentous fungus instead of S. cerevisiae. Type of test: cell-based. The settings on record: does not grow in the media. The text has this: (§1) Attempts are made to replace S. cerevisiae with several species of filamentous fungi, including Neurospora crassa, Aspergillus nidulans, Botrytis cinerea, Pseudocercosporella herpotrichoides, but all the species respond differently from S. cerevisiae. N. crassa and A. nidulans require very high concentrations of calcofluor to inhibit growth.

The subject of test [2] is Neurospora crassa. Described as above. Type of test: cell-based. The conditions noted are these: very high calcofluor concentrations.
Description: as §1

Test [3] relates to Pseudocercosporella herpotrichoides. Described as above. The class given is cell-based. The conditions noted are these: does not grow in the media.
Description: as §1

In test [4] the test system is Aspergillus nidulans. The description is as above. The class given is cell-based. The settings on record: very high calcofluor concentrations.
Description: as §1

Test [5] deals with Chs1 (Saccharomyces cerevisiae, UniProt P08004). The conditions noted are these: Cabib, Antimicrob. Agents Chemother. 35: 170-173 (1991); cited from earlier work.
Chain of Chs1 (P08004 whole entry): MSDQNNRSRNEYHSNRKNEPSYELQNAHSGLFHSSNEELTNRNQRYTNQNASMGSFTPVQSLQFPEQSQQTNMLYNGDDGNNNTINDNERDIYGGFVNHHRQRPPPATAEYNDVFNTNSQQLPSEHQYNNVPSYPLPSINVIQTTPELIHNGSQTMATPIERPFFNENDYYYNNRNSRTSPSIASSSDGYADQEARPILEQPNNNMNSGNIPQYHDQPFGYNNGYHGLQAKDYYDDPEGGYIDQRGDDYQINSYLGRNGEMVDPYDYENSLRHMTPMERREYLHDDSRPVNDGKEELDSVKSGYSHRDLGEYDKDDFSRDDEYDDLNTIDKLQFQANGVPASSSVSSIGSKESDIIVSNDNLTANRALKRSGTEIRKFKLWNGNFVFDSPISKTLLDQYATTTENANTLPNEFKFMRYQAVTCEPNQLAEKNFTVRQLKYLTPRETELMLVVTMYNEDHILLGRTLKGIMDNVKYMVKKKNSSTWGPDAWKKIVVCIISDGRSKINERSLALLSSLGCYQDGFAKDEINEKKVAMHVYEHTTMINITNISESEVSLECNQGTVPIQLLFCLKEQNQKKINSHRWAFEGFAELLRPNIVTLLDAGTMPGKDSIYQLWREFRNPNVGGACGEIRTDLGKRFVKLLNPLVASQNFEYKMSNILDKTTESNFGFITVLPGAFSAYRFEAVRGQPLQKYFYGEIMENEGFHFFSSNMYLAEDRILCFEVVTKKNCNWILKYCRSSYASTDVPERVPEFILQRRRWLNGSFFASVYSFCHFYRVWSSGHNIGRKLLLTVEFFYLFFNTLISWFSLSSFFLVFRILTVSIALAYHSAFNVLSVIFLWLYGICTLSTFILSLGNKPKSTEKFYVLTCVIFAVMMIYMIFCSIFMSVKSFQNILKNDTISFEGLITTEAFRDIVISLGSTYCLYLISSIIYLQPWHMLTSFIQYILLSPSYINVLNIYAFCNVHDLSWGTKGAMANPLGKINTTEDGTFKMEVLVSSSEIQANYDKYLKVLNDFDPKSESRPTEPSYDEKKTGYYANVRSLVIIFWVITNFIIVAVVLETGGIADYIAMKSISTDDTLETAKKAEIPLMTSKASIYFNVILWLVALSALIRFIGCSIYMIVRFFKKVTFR
In test [6] the test system is A.T.C.C. strain S288c. Put plainly: Comparison growth inhibition screen with strain S288c. The class given is cell-based, Saccharomyces cerevisiae. The conditions noted are these: same conditions at the same levels as Table III.
Test [7] deals with T1, Chs3 (Saccharomyces cerevisiae, UniProt P29465).
T1 construct: To assay Chs3 activity, membranes from cells lacking Chs1 and, preferably, Chs2 are prepared; endogenous in cells; host or cells: S. cerevisiae strains ECY36-3C, JW17-11/1A/FOA or SSY640-10A (crude membrane fraction)
T1 sequence (P34226 1-693): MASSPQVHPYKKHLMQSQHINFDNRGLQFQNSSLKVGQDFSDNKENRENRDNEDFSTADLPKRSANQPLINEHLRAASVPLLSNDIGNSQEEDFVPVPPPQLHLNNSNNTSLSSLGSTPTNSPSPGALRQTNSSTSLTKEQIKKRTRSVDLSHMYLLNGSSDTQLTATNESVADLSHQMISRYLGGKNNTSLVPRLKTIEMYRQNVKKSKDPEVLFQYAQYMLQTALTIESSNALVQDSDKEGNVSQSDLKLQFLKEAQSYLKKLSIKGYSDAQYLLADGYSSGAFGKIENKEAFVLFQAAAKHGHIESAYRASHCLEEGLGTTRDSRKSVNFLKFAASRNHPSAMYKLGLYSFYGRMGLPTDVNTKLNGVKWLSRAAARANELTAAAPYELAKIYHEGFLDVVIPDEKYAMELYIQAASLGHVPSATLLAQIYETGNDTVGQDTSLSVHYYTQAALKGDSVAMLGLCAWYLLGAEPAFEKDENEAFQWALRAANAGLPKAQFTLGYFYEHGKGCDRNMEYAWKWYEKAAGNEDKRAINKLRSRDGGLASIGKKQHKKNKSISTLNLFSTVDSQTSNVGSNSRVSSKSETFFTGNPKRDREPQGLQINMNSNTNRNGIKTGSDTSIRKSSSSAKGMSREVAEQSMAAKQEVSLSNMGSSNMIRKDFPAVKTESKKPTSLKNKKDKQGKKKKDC
T1 sequence (P29465 whole entry): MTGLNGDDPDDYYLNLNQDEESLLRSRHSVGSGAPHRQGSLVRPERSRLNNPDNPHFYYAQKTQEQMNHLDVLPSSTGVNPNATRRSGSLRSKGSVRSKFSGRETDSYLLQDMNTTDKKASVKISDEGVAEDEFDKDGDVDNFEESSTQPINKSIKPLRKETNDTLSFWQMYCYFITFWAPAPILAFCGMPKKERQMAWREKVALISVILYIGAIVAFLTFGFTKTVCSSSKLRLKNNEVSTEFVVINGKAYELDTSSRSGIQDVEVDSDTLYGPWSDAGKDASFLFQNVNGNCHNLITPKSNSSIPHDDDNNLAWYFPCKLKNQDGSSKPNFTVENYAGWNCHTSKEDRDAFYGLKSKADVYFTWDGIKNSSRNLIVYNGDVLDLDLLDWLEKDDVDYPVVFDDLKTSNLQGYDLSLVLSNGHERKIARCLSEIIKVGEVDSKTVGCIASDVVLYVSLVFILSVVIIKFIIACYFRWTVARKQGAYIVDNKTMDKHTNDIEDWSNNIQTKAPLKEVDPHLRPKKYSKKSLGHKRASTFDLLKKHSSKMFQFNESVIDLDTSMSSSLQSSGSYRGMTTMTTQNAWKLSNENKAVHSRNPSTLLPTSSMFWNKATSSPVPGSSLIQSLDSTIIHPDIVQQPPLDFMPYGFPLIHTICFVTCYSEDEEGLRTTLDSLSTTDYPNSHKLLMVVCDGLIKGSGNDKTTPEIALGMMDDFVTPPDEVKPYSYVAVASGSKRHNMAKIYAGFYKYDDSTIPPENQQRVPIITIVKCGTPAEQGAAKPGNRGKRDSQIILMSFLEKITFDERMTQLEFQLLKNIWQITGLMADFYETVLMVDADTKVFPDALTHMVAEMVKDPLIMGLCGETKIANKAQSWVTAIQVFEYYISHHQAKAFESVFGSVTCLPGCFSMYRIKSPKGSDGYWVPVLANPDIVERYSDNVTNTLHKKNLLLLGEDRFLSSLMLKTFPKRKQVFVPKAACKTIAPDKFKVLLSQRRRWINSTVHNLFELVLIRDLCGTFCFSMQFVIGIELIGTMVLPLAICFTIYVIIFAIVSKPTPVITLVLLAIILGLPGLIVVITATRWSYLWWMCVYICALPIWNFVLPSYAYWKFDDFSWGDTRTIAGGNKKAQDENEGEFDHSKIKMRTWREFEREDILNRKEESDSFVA
Put plainly: In vitro chitin synthase enzyme assay (incorporation of UDP-14C-N-acetylglucosamine). The class given is biochemical. The procedure:
In Vitro Secondary Screens. These enzyme assays detect inhibition of individual chitin synthase isozymes Chs1, Chs2, and Chs3 by monitoring the incorporation of radioactive chitin precursor uridine diphospho-N-acetyl glucosamine into acid precipitable counts (i.e., chitin).
To assay Chs3 activity, membranes from cells lacking Chs1 and, preferably, Chs2 are prepared by a modification of the method of Orlean, P. cited above. Strain ECY36-3C, JW17-11/1A/FOA or SSY640-10A are inoculated into YEPD, and the culture is shaken at 30° C. Cells are harvested while still growing exponentially, e.g., at O.D.600 of ˜0.4 as measured in a Guilford Response™ spectrophotometer, washed once in 50 mM Tris-HCl, pH 7.5, containing 0.01 mM EDTA and 1 mM DTT (1,4-dithiothreitol), and resuspended in about 3 volumes of this buffer. Glass beads of about 200 to 300 micron diameter are added to just below the meniscus of the suspension, and cells are shaken by vortexing or in a Bead-Beater™ until lysis occurs, which is monitored microscopically. During this procedure, the cell suspension is kept below 10° C. by cooling in ice. The extract is collected, the glass beads are washed with the same buffer, and the wash is added to the extract. The volume is adjusted to about 20 original volumes with the same buffer.
The cell walls and debris are removed by a 10 minute centrifugation at about 3000×g. The samples are centriuged at 100,000×g for 40 minutes at 4° C. The membrane pellets are resuspended in about one original volume 50 mM Tris-HCl, pH 7.5 containing 0.01 mM EDTA which may contain 33% glycerol, and subjected to Dounce homogenization.
Ten μl of membranes are incubated with shaking in the presence of putative inhibitors in a standard 50 μl assay mixture containing 1 mM uridine diphospho-(^14C)-N-acetyl-glucosamine (400,000 cpm/μmole), 40 mM N-acetylglucosamine, 50 mM Tris-HCl, pH 7.5, and 5 mM MgCl2 at 25° C. The reaction is stopped after 90 minutes by addition of 10% trichloroacetic acid, and the amount of product quantified by filtration and scintillation counting.

Test [8] relates to strain SSY640-10A (containing only Chs3). Nature of the test: In vivo secondary screen, growth of chitin synthase mutant yeast. Type of test: cell-based, Saccharomyces cerevisiae. The source says: (§2) Especially preferred in vivo secondary screens employ a pair of genetically related strains, one producing one isozyme, e.g., Chs2, and the other producing a different isozyme, e.g., Chs3. Using pairs allows for the simultaneous determination that culture conditions are appropriate for growth in the absence of inhibition and the identification of which isozyme may be affected by inhibition. The pairs, for example, include the ECY36-3C and ECY36-3D strains described by Shaw, cited above, that produce only Chs3 and Chs 2, respectively, and similar pairs such as SSY640-10A (containing only Chs3) and SSY-638-3B (containing only Chs 2) described in the Examples below. […] In a similar manner, a comparison of differential effects observed in the growth of strain pairs in the presence of a test sample allows for the putative identification of which isozyme is affected by the sample.
(§3) In Vivo Secondary Screens. The in vivo calcofluor rescue secondary screens assay the differential effect of compounds on the growth of two pairs of yeast strains. Each strain in the pairs, denoted ECY36-3C and ECY36-3D and SSY640-10A and SSY638-3B, is a chitin synthase mutant that relies on the expression of a single chitin synthase isozyme for its survival.
(§4) Strain SSY640-10A has genotype chs1::HIS3, chs2::TRP1, his3, trp1, ade2, ade3, leu2, lys2, ura3 (possible cmk1Δ 1::HIS3). […]

The subject of test [9] is strain SSY638-3B (containing only Chs2). Described as above. Type of test: cell-based, Saccharomyces cerevisiae.
Description: as §2, §3, §4

Consider `C[C@@H]([C@H](N)C(=O)N[C@H](C(=O)O)[C@H]1O[C@@H](n2ccc(=O)[nH]c2=O)[C@H](O)[C@@H]1O)[C@H](O)c1ccc(O)cn1` [nikkomycin Z], for which the rescue from calcofluor entry in [1] and in [3] was “no rescue” in each case. The “growth in calcofluor culture” value in test [2] and in test [4] was “extensive growth” in each case. Further, the “inhibition of Chs1 relative to Chs2” value in test [5] was “inhibit the activity of Chs1 to a much greater extent than Chs2”. Besides, the “growth inhibition of strain S288c” value in test [6] is “no inhibition”. Besides, the results for the “% Chs3 Activity” value in [7] (1 μM inhibitor), in test [7] (2.5 μM inhibitor) and in test [7] (5 μM inhibitor) were “˜80%”, “˜55%” and “˜41%”, respectively. Also, the “chitin synthase isozyme affected” value in test [7] (secondary screening, Chs1, Chs2, Chs3 assays) was “act preferentially on the Chs3 isozyme”. In test [8], the “growth of strain SSY640-10A (in words)” value is on record as “inhibited”. Further, the “growth of strain SSY638-3B (in words)” value in test [9] was “unaffected”.
